Test results from patent publication US20070049564A1 (Wyeth, priority 2005, published 2007).
In brackets after ≈: the same amount, converted by molar mass. Like-named read-outs stand apart in the source and are kept apart here.

Experiments:
[1] = tested on: E. coli GC 2236; assay: MIC, broth microdilution; details: Escherichia coli
[2] = tested on: E. coli GC 2231; assay: MIC, broth microdilution; details: Escherichia coli
[3] = tested on: E. coli GC 2232; assay: MIC, broth microdilution; details: Escherichia coli
[4] = tested on: E. coli GC 2233; assay: MIC, broth microdilution; details: Escherichia coli
[5] = tested on: E. coli GC 2234; assay: MIC, broth microdilution; details: Escherichia coli
[6] = tested on: E. coli GC 2270; assay: MIC, broth microdilution; details: Escherichia coli
[7] = tested on: E. coli GC 2271; assay: MIC, broth microdilution; details: Escherichia coli
[8] = tested on: E. coli GC 3226; assay: MIC, broth microdilution; details: Escherichia coli
[9] = tested on: E. coli GC 2203; assay: MIC, broth microdilution; details: Escherichia coli
[10] = tested on: P. aeruginosa GC 2214; assay: MIC, broth microdilution; details: Pseudomonas aeruginosa
[11] = tested on: S. aureus GC 6466; assay: MIC, broth microdilution; details: Staphylococcus aureus
[12] = tested on: S. aureus GC 2216; assay: MIC, broth microdilution; details: Staphylococcus aureus
[13] = tested on: S. aureus GC 6335; assay: MIC, broth microdilution; details: Staphylococcus aureus
[14] = tested on: S. aureus GC 6469; assay: MIC, broth microdilution; details: Staphylococcus aureus
[15] = tested on: E. faecalis GC 2265; assay: MIC, broth microdilution; details: Enterococcus faecalis
[16] = tested on: E. faecium GC 4556; assay: MIC, broth microdilution; details: Enterococcus faecium
[17] = tested on: E. faecium GC 2243; assay: MIC, broth microdilution; details: Enterococcus faecium
Protocol: Antimicrobial susceptibility testing. The in vitro activities of the antibiotics are determined by the broth microdilution method as recommended by the National Committee for Clinical Laboratory Standards (NCCLS) (1). Mueller-Hinton II broth (MHBII)(BBL Cockeysville, Md.) is the medium employed in the testing procedures. Microtiter plates containing serial dilutions of each antimicrobial agent are inoculated with each organism to yield the appropriate density (10^5 CFU/ml) in a 100 μl final volume. The plates are incubated for 18-22 hours at 35° C. in ambient air.
Representative compounds were first incubated in mouse serum for an hour prior to the in vitro testing against a panel of selected gram-positive and gram-negative bacteria strains. All compounds were also pre-incubated in water for an hour prior to testing as control.

[18] = tested on: S. pyogenes GC 4563; assay: MIC, broth microdilution; details: Streptococcus pyogenes
[19] = tested on: E. coli; assay: Range of MIC for E. coli strains; details: Escherichia coli
[20] = tested on: Staph.; assay: Range of MIC for Staph. strains, including MRSA; details: Staphylococcus aureus

**Q.** For `CN(C)c1cc(NC(=O)CN(C(=O)OCOC(=O)C2CCC2)C(C)(C)C)c(O)c2c1C[C@H]1C[C@H]3[C@H](N(C)C)C(O)=C(C(N)=O)C(=O)[C@@]3(O)C(O)=C1C2=O` [Example 62, ({[(2-{[(5aR,6aS,7S,10aS)-9-(aminocarbonyl)-4,7-bis(dimethylamino)-1,8,10a,11-tetrahydroxy-10,12-dioxo-5,5a,6,6a,7,10,10a,12-octahydrotetracen-2-yl]amino}-2-oxoethyl)(tert-butyl)amino]carbonyl}oxy)methyl cyclobutanecarboxylate], which MIC ([1]; GC2236, pre-incubation in human serum) is on record?
**A.** 8 µg/mL (≈ 10.8 µM)

**Q.** And the MIC ([1]; GC2236, pre-incubation in mouse serum)?
**A.** 0.5 µg/mL (≈ 0.674 µM)

**Q.** What about the MIC ([1]; GC2236, pre-incubation in water) of the same compound?
**A.** 4 µg/mL (≈ 5.39 µM)

**Q.** And the MIC ([2]; GC2231, pre-incubation in human serum)?
**A.** 4 µg/mL (≈ 5.39 µM)

**Q.** And the MIC ([2]; GC2231, pre-incubation in mouse serum)?
**A.** 0.5 µg/mL (≈ 0.674 µM)

**Q.** And the MIC ([2]; GC2231, pre-incubation in water)?
**A.** 8 µg/mL (≈ 10.8 µM)

**Q.** What about the MIC ([3]; GC2232, pre-incubation in human serum) of the same compound?
**A.** 2 µg/mL (≈ 2.7 µM)

**Q.** And the MIC ([3]; GC2232, pre-incubation in mouse serum)?
**A.** 1 µg/mL (≈ 1.35 µM)

**Q.** What about the MIC ([3]; GC2232, pre-incubation in water) of the same compound?
**A.** 8 µg/mL (≈ 10.8 µM)

**Q.** And the MIC ([4]; GC2233, pre-incubation in human serum)?
**A.** 4 µg/mL (≈ 5.39 µM)

**Q.** And the MIC ([4]; GC2233, pre-incubation in mouse serum)?
**A.** 2 µg/mL (≈ 2.7 µM)

**Q.** What about the MIC ([4]; GC2233, pre-incubation in water) of the same compound?
**A.** 8 µg/mL (≈ 10.8 µM)

**Q.** What about the MIC ([5]; GC2234, pre-incubation in human serum) of the same compound?
**A.** 2 µg/mL (≈ 2.7 µM)

**Q.** And the MIC ([5]; GC2234, pre-incubation in mouse serum)?
**A.** 1 µg/mL (≈ 1.35 µM)

**Q.** What about the MIC ([5]; GC2234, pre-incubation in water) of the same compound?
**A.** 8 µg/mL (≈ 10.8 µM)

**Q.** And the MIC ([6]; GC2270, pre-incubation in human serum)?
**A.** 2 µg/mL (≈ 2.7 µM)

**Q.** And the MIC ([6]; GC2270, pre-incubation in mouse serum)?
**A.** 0.5 µg/mL (≈ 0.674 µM)

**Q.** And the MIC ([6]; GC2270, pre-incubation in water)?
**A.** 8 µg/mL (≈ 10.8 µM)

**Q.** What about the MIC ([7]; GC2271, pre-incubation in human serum) of the same compound?
**A.** 2 µg/mL (≈ 2.7 µM)

**Q.** What about the MIC ([7]; GC2271, pre-incubation in mouse serum) of the same compound?
**A.** 1 µg/mL (≈ 1.35 µM)

**Q.** What about the MIC ([7]; GC2271, pre-incubation in water) of the same compound?
**A.** 4 µg/mL (≈ 5.39 µM)

**Q.** What about the MIC ([8]; GC3226, pre-incubation in human serum) of the same compound?
**A.** 4 µg/mL (≈ 5.39 µM)

**Q.** What about the MIC ([8]; GC3226, pre-incubation in mouse serum) of the same compound?
**A.** 1 µg/mL (≈ 1.35 µM)

**Q.** And the MIC ([8]; GC3226, pre-incubation in water)?
**A.** 8 µg/mL (≈ 10.8 µM)

**Q.** And the MIC ([9]; GC2203, pre-incubation in human serum)?
**A.** 4 µg/mL (≈ 5.39 µM)

**Q.** What about the MIC ([9]; GC2203, pre-incubation in mouse serum) of the same compound?
**A.** 1 µg/mL (≈ 1.35 µM)

**Q.** What about the MIC ([9]; GC2203, pre-incubation in water) of the same compound?
**A.** 16 µg/mL (≈ 21.6 µM)

**Q.** What about the MIC ([10]; GC2214, pre-incubation in human serum) of the same compound?
**A.** > 64 µg/mL

**Q.** And the MIC ([10]; GC2214, pre-incubation in mouse serum)?
**A.** 16 µg/mL (≈ 21.6 µM)

**Q.** And the MIC ([10]; GC2214, pre-incubation in water)?
**A.** > 64 µg/mL

**Q.** And the MIC ([11]; GC6466, pre-incubation in human serum)?
**A.** 0.5 µg/mL (≈ 0.674 µM)

**Q.** What about the MIC ([11]; GC6466, pre-incubation in mouse serum) of the same compound?
**A.** 0.5 µg/mL (≈ 0.674 µM)

**Q.** What about the MIC ([11]; GC6466, pre-incubation in water) of the same compound?
**A.** 0.25 µg/mL (≈ 0.337 µM)

**Q.** And the MIC ([12]; GC2216, pre-incubation in human serum)?
**A.** 0.5 µg/mL (≈ 0.674 µM)

**Q.** What about the MIC ([12]; GC2216, pre-incubation in mouse serum) of the same compound?
**A.** 0.5 µg/mL (≈ 0.674 µM)

**Q.** What about the MIC ([12]; GC2216, pre-incubation in water) of the same compound?
**A.** 0.5 µg/mL (≈ 0.674 µM)

**Q.** And the MIC ([13]; GC6335, pre-incubation in human serum)?
**A.** 0.5 µg/mL (≈ 0.674 µM)

**Q.** What about the MIC ([13]; GC6335, pre-incubation in mouse serum) of the same compound?
**A.** 1 µg/mL (≈ 1.35 µM)

**Q.** What about the MIC ([13]; GC6335, pre-incubation in water) of the same compound?
**A.** 0.5 µg/mL (≈ 0.674 µM)

**Q.** What about the MIC ([14]; GC6469, pre-incubation in human serum) of the same compound?
**A.** 0.5 µg/mL (≈ 0.674 µM)

**Q.** What about the MIC ([14]; GC6469, pre-incubation in mouse serum) of the same compound?
**A.** 1 µg/mL (≈ 1.35 µM)

**Q.** And the MIC ([14]; GC6469, pre-incubation in water)?
**A.** 1 µg/mL (≈ 1.35 µM)

**Q.** What about the MIC ([15]; GC2265, pre-incubation in human serum) of the same compound?
**A.** 0.5 µg/mL (≈ 0.674 µM)

**Q.** And the MIC ([15]; GC2265, pre-incubation in mouse serum)?
**A.** 0.5 µg/mL (≈ 0.674 µM)

**Q.** And the MIC ([15]; GC2265, pre-incubation in water)?
**A.** 1 µg/mL (≈ 1.35 µM)

**Q.** What about the MIC ([16]; GC4556, pre-incubation in human serum) of the same compound?
**A.** 1 µg/mL (≈ 1.35 µM)

**Q.** What about the MIC ([16]; GC4556, pre-incubation in mouse serum) of the same compound?
**A.** 1 µg/mL (≈ 1.35 µM)

**Q.** What about the MIC ([16]; GC4556, pre-incubation in water) of the same compound?
**A.** 1 µg/mL (≈ 1.35 µM)

**Q.** What about the MIC ([17]; GC2243, pre-incubation in human serum) of the same compound?
**A.** 0.5 µg/mL (≈ 0.674 µM)

**Q.** What about the MIC ([17]; GC2243, pre-incubation in mouse serum) of the same compound?
**A.** 0.5 µg/mL (≈ 0.674 µM)

**Q.** What about the MIC ([17]; GC2243, pre-incubation in water) of the same compound?
**A.** 0.5 µg/mL (≈ 0.674 µM)

**Q.** What about the MIC ([18]; GC4563, pre-incubation in human serum) of the same compound?
**A.** 0.12 µg/mL (≈ 0.162 µM)

**Q.** And the MIC ([18]; GC4563, pre-incubation in mouse serum)?
**A.** 0.25 µg/mL (≈ 0.337 µM)

**Q.** And the MIC ([18]; GC4563, pre-incubation in water)?
**A.** 0.25 µg/mL (≈ 0.337 µM)

**Q.** And the MIC ([19]; 20 h, read-out: Range of MIC, E. coli (Mouse Serum))?
**A.** 0.5 to 2 µg/mL (≈ 0.674 to 2.7 µM)

**Q.** And the MIC ([19]; read-out: Minimum inhibitory concentration (MIC), E. coli (Human Serum))?
**A.** 2 to 8 µg/mL (≈ 2.7 to 10.8 µM)

**Q.** What about the MIC ([20]; MRSA, read-out: Range of MIC, Staph (Mouse Serum)) of the same compound?
**A.** 0.5 to 1 µg/mL (≈ 0.674 to 1.35 µM)

**Q.** What about the MIC ([20]; read-out: Minimum inhibitory concentration (MIC), Staph (Human Serum)) of the same compound?
**A.** 0.5 µg/mL (≈ 0.674 µM)

**Q.** What about the MIC ([20]; read-out: Minimum inhibitory concentration (MIC), Staph (Water)) of the same compound?
**A.** 0.25 to 1 µg/mL (≈ 0.337 to 1.35 µM)
